This passage reports EC50 and IC50 results from ChEMBL document CHEMBL1128775, “Specific affinity labeling of opioid receptors in rat brain by S-activated sulfhydryldihydromorphine analogs” (Bioorg Med Chem Lett, 1995).

Molecules are shown by their SMILES.

Holding throughout (format): tissue-based
Test [1] addresses T1, Mu-type opioid receptor (Rattus norvegicus, UniProt P33535). Put plainly: Compound was evaluated for its binding affinity to mu opioid receptors in rat brain.
In test [2] the target is T1, Mu-type opioid receptor. Kind of test: Ability to displace [3H][D-Ala2,MePhe4,Gly-ol5]enkephalin ([3H]DAGO) from mu opioid receptors in rat brain.
Test [3] has as its target T2, Delta-type opioid receptor (Rattus norvegicus, UniProt P33533). Put plainly: Compound was evaluated for its binding affinity to Opioid receptor delta 1 in rat brain.
Test [4] addresses T2, Delta-type opioid receptor. Put plainly: Ability to displace [3H][D-Ser2,Leu5]enkephalin-Thr ([3H]DSLET) from Opioid receptor delta 1 in rat brain.

T1 sequence (P33535 whole entry): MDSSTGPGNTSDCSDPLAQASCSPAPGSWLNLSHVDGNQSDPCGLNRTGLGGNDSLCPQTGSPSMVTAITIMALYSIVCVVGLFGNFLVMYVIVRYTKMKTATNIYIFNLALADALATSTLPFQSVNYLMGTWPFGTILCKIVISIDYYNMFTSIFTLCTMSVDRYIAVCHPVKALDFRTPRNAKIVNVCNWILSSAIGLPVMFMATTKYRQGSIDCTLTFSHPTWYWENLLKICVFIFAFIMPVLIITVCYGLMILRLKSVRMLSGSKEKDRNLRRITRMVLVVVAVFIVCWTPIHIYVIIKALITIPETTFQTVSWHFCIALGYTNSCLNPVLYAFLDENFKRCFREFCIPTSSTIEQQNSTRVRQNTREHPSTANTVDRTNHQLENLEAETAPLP
T2 sequence (P33533 whole entry): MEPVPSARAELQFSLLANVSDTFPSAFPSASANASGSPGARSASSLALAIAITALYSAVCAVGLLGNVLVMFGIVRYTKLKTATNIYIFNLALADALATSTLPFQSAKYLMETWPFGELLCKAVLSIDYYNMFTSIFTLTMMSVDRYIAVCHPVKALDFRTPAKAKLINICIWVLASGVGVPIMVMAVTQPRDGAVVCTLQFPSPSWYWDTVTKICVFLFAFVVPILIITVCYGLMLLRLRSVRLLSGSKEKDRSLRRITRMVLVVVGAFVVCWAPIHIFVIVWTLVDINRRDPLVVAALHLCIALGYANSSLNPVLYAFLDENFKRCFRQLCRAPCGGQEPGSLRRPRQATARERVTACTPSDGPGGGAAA

As usually defined, the EC50 is the concentration needed to bring the measured effect to its halfway point. The term IC50 denotes the concentration that inhibits the measured activity by half. Low values mean inhibition by little substance, high ones a need for much substance. Take `CN1CC[C@]23c4c5ccc(O)c4O[C@H]2[C@@H](O)C[C@H](SSc2ccc([N+](=O)[O-])cn2)C3[C@H]1C5` (stereo partly drawn): the EC50 came out at 1700 nM in test [1] and 1200 nM in test [3]. The IC50 in test [2] is 58.1 nM; in test [4], 67.9 nM.
In the case of `CN1CC[C@]23c4c5ccc(O)c4O[C@H]2[C@H](SSc2ccc([N+](=O)[O-])cn2)CCC3C1C5` (stereo partly drawn), the EC50 in test [1] was found to be 58.1 nM; in test [3], 402 nM. The IC50 was 31.1 nM in test [2] and 206 nM in test [4].
